# Experimental data: US9125877B2, “Use of kauranes compounds in the manufacture of medicament” (priority 2004, dated 2015)
# “Also recorded” adds a separate entry of the source. Where two headings read alike, the source gives them in different places.
# Assays:
# [1] = test system: ischemic heart (occlusion of left coronary artery and reperfusion); assay: Cardiodynamic parameters in the cardiac ischemia-reperfusion rat model; type: in vivo, Sprague-Dawley rats
# Experimental: (§1) Rats were anesthetized, the tracheotomy was performed and an intubation cannula was connected to a respirator for artificial respiration. Arterial blood pressure monitored by a pressure gauge via a femoral artery. A Miller pressure gauge was intervened into left ventricular chamber via a carotid artery to monitor ventricular pressure. The pressure gauges were connected to a Power-lab biological real-time data recording system. ECG was monitored and recorded via subcutaneous needle probes on the arms of rats. The parameters recorded including: Mean arterial blood pressure (MAP), left ventricular systolic pressure (LVSP), the first derivatives of left ventricular pressure (±dp/dtMax), left ventricular diastolic pressure (LVDP), left ventricular end diastolic pressure (LVEDP) and heart rate (HR).
# (§2) The chest was open by a left-side thoracotomy between the 4th intercostals space. The pericardium was opened to expose the heart. A stainless needle and a silk suture were placed around the left coronary artery (LCD) and a loose snare ligation was formed. After complete the surgery, the animals were allowed to stabilize for 10 minus before the occlusion of LCD by tightening the snare. A success in occlusion was associated with an area of pericardial cyanosis, an elevation of T wave or ST segment in ECG. The ischemia period of occlusion was maintained from 20 or 30 minus. Cardiac reperfusion was then achieved by releasing of the snare and was confirmed by hyperemic blushing of the previous ischemic area of cyanosis and gradually recovery of the changes in ECG signals. The reperfusion period was maintained for 50 to 80 minus. ECG, MAP and other cardiodynamic data were recorded before the ischemia (control), and during the periods of ischemia and reperfusion.
# Control group: occlusion of coronary/ischemia-reperfusion. Testing group: occlusion of coronary/ischemia-reperfusion plus compound A or B
# In part of the experiments, the time periods for occlusion and release of coronary were set for 30 min and 80 min, in order to enhance the results of ischemia-reperfusion.
# [2] = test system: ventricular tachycardia and fibrillation caused by coronary ischemia; assay: Arrhythmia (VT, VF) during cardiac ischemia by coronary occlusion; type: in vivo, Sprague-Dawley rats; conditions: for VF Duration / VT Duration / VTorVF Onset / VT + VF score: occlusion of coronary for 20 min; for VT + VF score: score = (duration of VT × 1) + (duration of VF × 2)
# Experimental: as §1, §2
# Arrhythmia of ventricular tachycardia (VT) and fibrillation (VF) are the main causes of death in clinic. In the control group during ischemia, VT occurred in all of the 11 animals, VF occurred in 10 out of the 11 animals, and 3 out of the 11 animals were dead due to continuation of VF. […] The results from both control and testing groups during cardiac ischemia including the frequency of occurrence, onset time and duration of the VT and VF are shown in table 3.
# [3] = test system: ischemic myocardium, myocytes and mitochondria; assay: Morphology of ischemic myocardium under light and electron microscope; type: in vivo, Sprague-Dawley rats
# Experimental: At the end of experiments, the ischemic and non-ischemic normal myocardium were excised at the ischemic region respectively from both control or testing groups (compound A 1 mg/kg), and from sham-operated animals at respective region of the heart. The tissues were fixed with paraformaldehyde, embedded in wax, cut into thin or ultra-thin sections, stained and viewed under light or electron microscope.
# Analogously to Example 5 except the testing group treated with compound B (2 mg/kg). Myocardiac tissues from non-ischemia, ischemia and testing group animals were excised and prepared as noted above. Myocytes and its ultra structure were examined under light and transmission electron microscope. […] The densities of crestae and matrix appear normal, and the granules normally distributed within mitochondria. […] The histological results were similar to the results from the animal treated with compound A (1 mg/kg) and indicate significant protective effects of compound B on myocardium by alleviating the ischemic damage of myocytes and mitochondria.
# cerebral ischemia = assay: Decapitated mouse model of brain ischemia (mouth-opening); type: in vivo, mice
# Experimental: Decapitated mouse model: The mouse first decapitated and the movement of mouth opening was monitored as a sign of respiration. The frequency and duration of mouth-opening was used as an index of cerebral function after decapitation.
# The animals were randomly assigned into three groups (n=8, equal number in sex): Control group, only vehicle saline were given; Testing group, compound A (4 mg/kg) dissolved in saline were given; and Positive control group, a reference compound Edaravone (8 mg/kg) dissolved in saline were given, Edaravone is an anti-oxidation drug and has protective effects on neuronal injury (Granl A. et al. 1996).
# Vehicle or compounds were administrated intraperitonealy 30 minus before decapitation.
# Solubility in water = type: physicochemical; conditions: free acid, before salt formation
# Experimental: The salts can be sodium, potassium or other inorganic salts. A preferred method is to use sodium. The method is the following: A solution of […] of NaOH is prepared. The liquid sodium salt of compound A or B was formed by dissolving 1 g of the compound A or B into 10 ml of the above NaOH solution and adjusting the PH to neutral. This liquid sodium salt can be further diluted with sterile water or mixed with pharmaceutical carrier at needed concentration for parenteral administration. It can be stored at room temperature.
# [4] = reported; large amount, under certain condition in vitro; cited from earlier work
# rats = conditions: cited from earlier work
# ischemic myocardium = assay: Infarct size of myocardium after ischemia-reperfusion (Evans blue); type: in vivo, Sprague-Dawley rats; conditions: compound A 1 mg/kg; control 58.6±4.7%; weight of infarct tissue/(infarct + ischemia tissue)
# Description: as §2, with “The reperfusion period was maintained for 50 to 80 minus.” left out
# Determination of the infarct size of myocardium: In both control and testing groups, After the end of reperfusion period, the coronary was occluded, Evans blue dye (1%, 0.5 ml) was injected to determine the ischemic and non-ischemic area of myocardium. […] After weighing the respective tissue samples, the infarction size of myocardium was calculated and express as following: Size of infarction=weight of infarct tissue/(weight of infarct tissue+weight of ischemia tissue) x %.
# [5] = test system: ischemic heart (left anterior descending coronary artery); assay: Pig coronary ischemia-reperfusion by balloon-tip catheter in LAD; type: in vivo
# Description: At an extremely high dose, the said effects may be abrogated. In a pig study in the invention, a balloon-tip catheter was intervened into left anterior descending coronary artery (LAD) under the guidance of X-ray angiograph. Coronary ischemia and reperfusion was reproduced by inflating or deflating the balloon. […] Kaurene compounds at this large dose may initiate an opposite or undesired effect which can diminish or override the therapeutic effects mentioned above.
# [6] = No obvious toxicity dose, administered intravenously (the invention); type: in vivo
# mice = conditions: cited from earlier work
# [7] = intravenous injection, previously reported; cited from earlier work
# arterial pressure = conditions: 25 mg/kg intraperitoneal in rats; cited from earlier work
# [8] = test system: ischemic heart (occlusion of left coronary artery and reperfusion); assay: Cardiodynamic parameters in the cardiac ischemia-reperfusion rat model; type: in vivo, Sprague-Dawley rats; conditions: stevioside 10 to 15 mg/kg, rats
# [9] = compound B 2 mg/kg, before ischemia
# [10] = compound B 2 mg/kg, during ischemia
# [11] = compound B 2 mg/kg, during reperfusion
# [12] = 8 mg/kg intraperitoneal 30 min before decapitation
# [13] = compound A 1 mg/kg i.v., before ischemia
# [14] = compound A 1 mg/kg i.v., ischemia
# [15] = compound A 1 mg/kg i.v., reperfusion
# [16] = 4 mg/kg intraperitoneal 30 min before decapitation
smiles,measurement,setting,value
"C=C1C[C@@]23CC[C@H]4[C@@](C)(CCC[C@@]4(C)C(=O)O)[C@@H]2CC[C@]1(O)C3 (single isomer, unassigned; ent-13) [Compound B, ent-13-hydroxykaur-16-en-18-oic acid]",+dp/dtMax. LVSP,[1]; [9],8609±543 mmHg/sec
same,LVSP,[1]; [9],112±5 mmHg
same,+dp/dtMax. LVSP,[1]; [10],7592±433 mmHg/sec
same,LVSP,[1]; [10],104±4 mmHg
same,+dp/dtMax. LVSP,[1]; [11],8362±498 mmHg/sec
same,LVSP,[1]; [11],110±4 mmHg
same,VF Duration,[2]; 2 mg/kg,1 s
same,VT Duration,[2]; 2 mg/kg,21 + 12 sec
same,VTorVF Onset,[2]; 2 mg/kg,660 + 178 sec
same,VT + VF score,[2]; 2 mg/kg,22 + 13
same,animals dead during cardiac ischemia,"[2]; compound B 2 mg/kg, n=5, control: 3 out of 11 dead",none of the animals are dead
same,morphology of ischemic myocardium under light and transmission electron microscope,"[3]; compound B 2 mg/kg, comparing with non-ischemia myocytes",Damages of both myocytes and mitochondria were not evident
same,Duration of mouth-opening,cerebral ischemia; [12],20.1 ± 4.1 s
same,Frequency of mouth-opening,cerebral ischemia; [12],12.8 ± 2.7
same,solubility in water,Solubility in water,not Readily Dissolved in Water
same,mutagenic effects,[4],certain mutagenic effects; also recorded: may be mutagenic
same,oral median lethal dose (LD50),"rats; rat, in vivo, po",1500 mg/kg
"C[C@@]12CC[C@@H]3[C@@](CC[C@H]4[C@@]3(C)CCC[C@@]4(C)C(=O)O)(CC1=O)C2 [Compound A, (4α,8β,13β)-13-methyl-16-oxo-17-norkauran-18-oic acid]",hypotension effect,[1]; 1 mg/kg intravenous in rats,no such hypotension effect
same,+dp/dt Max.LVSP,[1]; [13],8543 ± 486 mmHg/sec
same,HR,[1]; [13],367 ± 13 beat/min
same,LVSP,[1]; [13],111 ± 4 mmHg
same,MAP,[1]; [13],73 ± 3 mmHg
same,+dp/dt Max.LVSP,[1]; [14],7468 ± 558 mmHg/sec
same,HR,[1]; [14],375 ± 10 beat/min
same,LVSP,[1]; [14],103 ± 3 mmHg
same,MAP,[1]; [14],70 ± 5 mmHg
same,+dp/dt Max.LVSP,[1]; [15],8431 ± 340 mmHg/sec
same,HR,[1]; [15],394 ± 7 beat/min
same,LVSP,[1]; [15],114 ± 5 mmHg
same,MAP,[1]; [15],76 ± 3 mmHg
same,VF Duration,[2]; 1 mg/kg,1 s
same,VT Duration,[2]; 1 mg/kg,12 + 6 sec
same,VTorVF Onset,[2]; 1 mg/kg,730 + 166 sec
same,VT + VF score,[2]; 1 mg/kg,14 + 7
same,survival of cardiac ischemia,"[2]; compound A 1 mg/kg, control: 3 out of 11 dead due to continuation of VF",all the animal survived
same,size of infarction after ischemia,ischemic myocardium,45.8±2.9%
same,morphology of ischemic myocardium under light microscope,"[3]; compound A 1 mg/kg, 100× microscope",Destruction of myocytes was not evident
same,ultra structure of ischemic myocytes under electron microscope,"[3]; compound A 1 mg/kg, ×12000, comparing with non-ischemia myocytes",no observable damages of the myocytes and mitochondria
same,Duration of mouth-opening,cerebral ischemia; [16],22.9 ± 5 s
same,Frequency of mouth-opening,cerebral ischemia; [16],14.0 ± 3.2
same,sever arrhythmia induced by ischemia,[5]; pig pretreated at a small dose,effectively prevented
same,cardiac contractile function,"[5]; pig, extremely high dose (20 times more) administered via LAD",significant decrease in cardiac contractile function
same,effects on heart before ischemia,"[5]; pig, small dose",no observable effects on heart
same,solubility in water,Solubility in water,not Readily Dissolved in Water
same,no obvious toxicity dose,[6],up to 40 mg/kg
same,minimum oral lethal dose,mice,5060 mg/kg
same,median lethal dose (LD50),[7],650 mg/kg
same,effect of a large dose on vessels and arterial pressure,arterial pressure,vasodilation and lowering of arterial pressure
same,LD50,"rats; intraperitoneal, rats",617 mg/kg
same,median lethal dose (LD50),"rats; intravenous injection, rats",503 mg/kg
same,major symptoms of toxicity at lethal dose,rats; lethal dose,vasodilation and renal failure
same,minimum oral lethal dose,"rats; oral, rats",3160 mg/kg
same,oral median lethal dose (LD50),"rats; oral, rats",3160 mg/kg
"CC1=NN(c2ccccc2)C(=O)C1 [Edaravone, reference compound]",Duration of mouth-opening,cerebral ischemia; [12],17.1 ± 4.3 s
same,Frequency of mouth-opening,cerebral ischemia; [12],13.1 ± 2.4
"C=C1C[C@@]23CC[C@H]4[C@@](C)(CCC[C@@]4(C)C(=O)O[C@@H]4O[C@H](CO)[C@@H](O)[C@H](O)[C@H]4O)[C@@H]2CC[C@]1(O[C@@H]1O[C@H](CO)[C@@H](O)[C@H](O)[C@H]1O[C@@H]1O[C@H](CO)[C@@H](O)[C@H](O)[C@H]1O)C3 [stevioside, reference compound]",therapeutic effects on arrhythmia,"[2]; stevioside 10 to 15 mg/kg, rats",No significant therapeutic effects
same,therapeutic effects on cardiac contractile function,[8],No significant therapeutic effects
